According to publication PMC7892475, “C-Terminal Amination of a Cationic Anti-Inflammatory Peptide Improves Bioavailability and Inhibitory Activity Against LPS-Induced Inflammation” (Frontiers in Immunology, 2021):

Legend:
[1] = tested on: LPS-stimulated RAW264.7 cells; test: Time of addition experiment (peptide pretreatment, LPS neutralization, post-treatment) in RAW264.7 cells; assay type: cell-based, mouse; conditions: ELISA
Experimental: To identify the mechanisms underlying the anti-inflammatory effects, three different types of treatments were performed as follow.
Briefly, 10 μg/ml peptide was added to the cell culture medium and incubated with cells for 1 h at 37°C Afterwards, the RAW 264.7 cells were washed with PBS and cultured with fresh medium containing 100 ng/ml LPS for 12 h at 37°C. After treatment, TNF-α, IL-6, and IL-1β secretion in the cell supernatants was assessed.
The peptides (10 μg/ml) were incubated with 100 ng/ml LPS directly for 1 h at 37°C. RAW 264.7 cells were stimulated with these mixtures for 12 h at 37°C. Afterwards, the TNF-α, IL-6 and IL-1β levels in the cell supernatants were assessed.
Briefly, 100 ng/ml LPS was added to the cell culture medium and incubated with cells for 1 h at 37°C. Afterwards, the RAW 264.7 cells were washed with PBS and cultured with fresh medium containing 10 μg/ml peptides for 12 h at 37°C. Afterwards, the TNF-α, IL-6, and IL-1β levels in the cell supernatants were assessed.
(§1) The levels of tumor necrosis factor (TNF)-α, interleukin (IL)-6, and IL-1β in cell culture supernatants and the levels of TNF-α, IL-6, and IL-1β in the serum of mice were detected using commercial ELISA kits (eBioscience, San Diego, USA) according to the manufacturer’s instructions. The levels of serum alanine amino transferase (ALT) and aspartate amino transferase (AST) were detected using commercial reagent kits (Nanjing Jiancheng Bioengineering Institute, Nanjing, China). The activity of myeloperoxidase (MPO) in the liver of mice was detected using an ELISA kit (Boster, Wuhan, China) according to the manufacturer’s instructions.

[2] = LPS neutralization, chromogenic end-point Tachypleus Amebocyte Lysate (TAL) assay; assay type: binding, E. coli; conditions: chromogenic TAL assay, LPS 1.0 U/ml, 0 to 64 μg/ml peptide
Experimental: The neutralization of LPS by the peptides was assessed through a quantitative Chromogenic End-point Tachypleus Amebocyte Lysate (CE TAL) assay using a QCL-1000 kit (XIAMEN BIOENDO TECHNOLOGY CO., China). LPS (E. coli, O111:B4, Sigma-Aldrich, USA) at a final concentration of 1.0 U/ml was incubated with various concentrations of the peptides (0 to 64 μg/ml final concentration) at 37°C for 15 min. Afterwards, the mixtures were incubated with TAL assay reagent at 37°C; for 6 min, and the absorbance was measured at 540 nm.

[3] = tested on: LPS-induced sepsis in C57/BL6 mice; test: LPS-induced murine model of sepsis; assay type: in vivo, mouse
Experimental: Male C57/BL6 mice (6–8 weeks of age) were purchased from Charles River (Beijing, China). The mice were maintained in a specific-pathogen-free (SPF) environment at 22 ± 1°C with relative 55 ± 10% humidity during the experiments. The assays were performed in conformity with the laws and regulations for live animal treatments at China Agricultural University.
The mice were randomly distributed into three groups (n = 12 each): control, LPS (E. coli, O111:B4, Sigma-Aldrich, USA) treatment, and CTP-NH2 pretreatment followed by LPS treatment (CTP-NH2 + LPS). For the first 7 days, CTP-NH2 (10 mg/kg mouse weight) was injected intraperitoneally once daily. Meanwhile, an equal volume of sterile saline was injected into mice in the control and LPS-treated groups. On day 7, LPS (10 mg/kg mouse weight) was injected intraperitoneally into mice in the LPS and CTP-NH2 + LPS groups to establish the sepsis animal model. The control group was intraperitoneally injected with an equal volume of saline. Sixteen hours after the LPS injection, the mice were euthanized by cervical dislocation, and samples of the […] were collected for analysis.
The mouse liver tissues were fixed in 4% paraformaldehyde, embedded in paraffin and cut into 5-μm-thick sections using an RM2235 microtome (Leica, Germany). The sections were stained with hematoxylin-eosin (H&E), and a DM3000 microscope was used to acquire images. LPS-induced liver injury was evaluated according to the following four categories: […]. The liver injury score was graded on a 0- to 4-point scale: 0, no injury; 1, up to 25% injury in the field; 2, up to 50% injury in the field; 3, up to 75% injury in the field; 4, diffuse injury ([43]).
For immunohistochemical analysis, the sections were blocked with PBS containing 1% w/v BSA for 1 h at room temperature. Afterwards, the sections were incubated with anti-CD177^+ antibody (1:100; Santa, USA). Samples were washed with PBS followed by incubation with horse-radish peroxidase (HRP)-conjugated rabbit anti-goat IgG (1:100; JIR, USA) at 4°C for 1 h. Subsequently, slides were stained with 3,3’-diaminobenzidine (DAB; DAKO, USA) and then counterstained with Harris hematoxylin. Finally, the samples were dehydrated in an alcohol gradient (70-100%) and cleared in xylene. All slides were mounted in neutral balsam.
as §1

[4] = tested on: NF-κB signaling pathway in LPS-treated RAW264.7 cells; test: Western blotting of the NF-κB signaling pathway; assay type: cell-based, mouse; conditions: 100 ng/ml LPS 1 h, wash, CTP-NH2 3 h, western blot
Experimental: RAW264.7 cells plated at a density 1.8 × 10^6 cells/ml were incubated with LPS (100 ng/ml) at 37°C for 1 h. After that, the cells were washed extensively with PBS before being treated with CTP-NH2 for 3 h at 37°C, followed by lysis of the cells. Cytoplasmic and nuclear protein fractions were obtained using NR-PER Nuclear and Cytoplasmic Extraction Reagents (Thermo Fisher Scientific Inc., New Zwaland). The protein concentrations were assessed with a […] (KeyGEN Biotech. Nanjing, China) according to the manufacturer’s instructions. Afterwards, total protein (40 μg protein/lane) was separated on 10% SDS-PAGE gels and then transferred to PVDF membranes (Bio-Rad). Next, the membranes were blocked with 5% non-fat dried-milk containing 0.05% TBST and then immunoblotted with specific primary antibodies against IKK-β, p-IKK-β, IкB-α, p-IкB-α, NF-кB (p65), p-NF-кB (p-p65), and β-actin (Santa Cruz, CA, USA). After being washed with TBST, the membranes were incubated with HRP-conjugated secondary antibodies (HuaAn, Hangzhou, China). A ChemiDoc MP Imaging System (Bio-Rad, Hercules, CA, USA) was used to quantify the density of the specific proteins.

Q: Which “TNF-α and IL-6 level, peptide used to pretreat cells or added after LPS induction” value ([1]; 10 μg/ml peptide 1 h then wash and 100 ng/ml LPS 12 h, or LPS 1 h, wash, then peptide 12 h) does the source give for “RWGRFLRKIRRFRRKDVT-NH2 [CTP-NH2, C-terminal amidated derivative peptide of CTP]” here?
A: reduced the concentration of TNF-α

Q: And the “TNF-α and IL-6 release, peptide incubated with LPS” value ([1]; 10 μg/ml peptide incubated with 100 ng/ml LPS 1 h at 37°C, mixture on cells 12 h)?
A: more potency than CTP

Q: And the “LPS neutralization activity” value [2]?
A: stronger than that of CTP

Q: And the “liver MPO activity” value ([3]; ELISA, 10 mg/kg i.p. pretreatment, LPS 10 mg/kg i.p., vs LPS-treated mice)?
A: significantly reduced this effect

Q: And the “infiltration of CD177+ neutrophils into the liver” value ([3]; immunohistochemistry, 10 mg/kg i.p. pretreatment, LPS 10 mg/kg i.p., vs LPS-treated group)?
A: significantly lower

Q: And the “serum TNF-α, IL-6 and IL-1β levels” value ([3]; male C57/BL6 mice, 10 mg/kg i.p. once daily 7 days (Figure 8 legend: 6 days), then LPS 10 mg/kg i.p., 16 h, ELISA, vs LPS-treated group)?
A: significantly decreased levels of TNF-α

Q: What about the “severity of liver injury (H&E, liver injury score)” value ([3]; male C57/BL6 mice, 10 mg/kg i.p. once daily pretreatment, LPS 10 mg/kg i.p., score 0 to 4) of the same substance?
A: attenuated

Q: And the “serum ALT and AST” value ([3]; male C57/BL6 mice, 10 mg/kg i.p. once daily pretreatment, LPS 10 mg/kg i.p., vs LPS-treated group)?
A: significantly attenuated these effects

Q: What about the “phosphorylation of IKK-β, IκB-α and NF-κB” value [4] of the same substance?
A: dampened levels of IKK-β
